Data set [1] can be described thus: Solubility of coating-composition components in FC-72 (comparative coating examples). The note with it: label = solute, solvent = FC-72; coating composition preparation.
Data set [2] is described as follows: Solubility of FC-72 (perfluorohexane) in the fluorine-containing solvents. The note with it: for Solubility (% by weight) FC-72 (Fluorine Content: 79% by weight): Table 1, solute FC-72 dissolved in the solvent; for ability of the solvent to dissolve FC-72: label = solvent, solute = FC-72. It counts as physicochemical.
Data set [3] is described as follows: Measurement of solubility of compound (17) (fluorine-free organic compound) in fluorine-containing solvents. The note with it: Table 1; solute compound (17) dissolved in the solvent.
Experimental: The resulting solution is diluted with deutrochloroform, followed by measuring ^1H-NMR.

Turning to `OCC(F)(F)C(F)(F)C(F)(F)C(F)(F)C(F)(F)C(F)(F)C(F)(F)C(F)(F)CO` [1H,1H,10H,10H-hexadecafluoro-1,10-decanediol], the “solubility in FC-72” value in data set [1] is on record as “not completely soluble”.
The same measure, in the same setting: to `CCO[Si](CCCN=C=O)(OCC)OCC` [3-(triethoxysilyl)propyl isocyanate] belongs “not completely soluble”.
Regarding `FC(F)(Cl)C(F)(F)OC(F)(Cl)C(Cl)(Cl)Cl` (stereo not shown) [Compound (2)], in data set [2], the “Solubility (% by weight) FC-72 (Fluorine Content: 79% by weight)” value is reported as “soluble in any” and the “ability of the solvent to dissolve FC-72” value is “can dissolve FC-72 in any proportion”. Besides, in data set [3], the “Solubility (% by weight) Compound (17) (Fluorine Content: 0% by weight)” value (shortened to “Solubility (% by weight) Compound”) is “soluble in any”.
Turning to `FC(F)(Cl)C(F)(F)OC(F)(Cl)C(F)(Cl)Cl` (stereo not shown) [Compound (2′)], in data set [2], the “Solubility (% by weight) FC-72” value is listed as “soluble in any” and the “ability of the solvent to dissolve FC-72” value was “can dissolve FC-72 in any proportion”.
On to `FC(F)(Cl)C(F)(OC(F)(Cl)C(Cl)(Cl)Cl)C(F)(F)Cl` (stereo not shown) [Compound (3)], for which, in data set [2], the “Solubility (% by weight) FC-72 (Fluorine Content: 79% by weight)” value is “soluble in any” and the “ability of the solvent to dissolve FC-72” value is reported as “can dissolve FC-72 in any proportion”. In addition, the “Solubility (% by weight) Compound” value in data set [3] is reported as “soluble in any”.
Consider `FC(Cl)(Cl)C(F)(F)OC(F)(Cl)C(F)(Cl)Cl` (stereo not shown) [Compound (3′)], for which, in data set [2], the “Solubility (% by weight) FC-72” value is reported as “soluble in any” and the “ability of the solvent to dissolve FC-72” value is “can dissolve FC-72 in any proportion”.
For `FC(Cl)(Cl)C(F)(F)OC(F)(Cl)C(Cl)(Cl)Cl` (stereo not shown) [Compound (4)], in data set [2], the “Solubility (% by weight) FC-72 (Fluorine Content: 79% by weight)” value is recorded as “soluble in any” and the “ability of the solvent to dissolve FC-72” value is “can dissolve FC-72 in any proportion”. For the same molecule, the “Solubility (% by weight) Compound” value in data set [3] is on record as “soluble in any”.
Consider `FC(Cl)(Cl)C(F)(Cl)OC(F)(F)C(Cl)(Cl)Cl` (stereo not shown) [Compound (4′)], for which, in data set [2], the “Solubility (% by weight) FC-72” value is “soluble in any” and the “ability of the solvent to dissolve FC-72” value was “can dissolve FC-72 in any proportion”.
For the molecule `FC(F)(OC(F)(Cl)C(Cl)(Cl)Cl)C(Cl)(Cl)Cl` (stereo not shown) [Compound (5)], in data set [2], the “Solubility (% by weight) FC-72 (Fluorine Content: 79% by weight)” value is “soluble in any” and the “ability of the solvent to dissolve FC-72” value is recorded as “can dissolve FC-72 in any proportion”. In data set [3], the “Solubility (% by weight) Compound” value is given as “soluble in any”.
`FC(F)(Cl)C(F)(OC(F)(Cl)C(F)(Cl)Cl)C(F)(F)Cl` (stereo not shown) [Compound (5′)]: in data set [2], the “Solubility (% by weight) FC-72” value is “soluble in any” and the “ability of the solvent to dissolve FC-72” value is “can dissolve FC-72 in any proportion”.

(Values after patent publication US20100249302A1, “LIQUID COMPOSITION CONTAINING PERFLUORO-CHLOROETHER SOLVENT” (FUJIFILM CORPORATION, priority 2009, published 2010).)
